Test results reported in patent publication US20240239813A1, “KRAS INHIBITORS AND PHARMACEUTICAL USES THEREOF” (RISEN (SUZHOU) PHARMA TECH CO., LTD., priority 2022, published 2024).

Target: His-tagged Human KRAS^G12D (Homo sapiens (Human), UniProt P01116, G12D)
Assay: HTRF KRAS G12D GTP binding assay
Conditions: displacement of GTP-Red tracer
Protocol: KRAS^G12D was used in this assay.
The ability of a test compound to bind to KRAS^G12D was measured by using an HTRF KRAS^G12D GTP Binding Kit (Cisbio, 63ADK000CB27PEG). […] 5 μL of compound solution was added to each well after serial dilution, followed by addition of 5 μL of GDP (50 nM) solution. After 30 minutes incubation at room temperature, 1×6His Eu cryptate antibody solution and GTP-Red tracer were added to the plate, then incubated for another 30 minutes. The HTRF signal was measured with a VICTOR Nivo multimode plate reader according to the manufacturer's instructions. The percent inhibition was calculated using the following formula: […]
(where the “Maximum Signal” are wells containing DMSO without inhibitor; the “Minimum Signal” are wells containing reference inhibitory component (GDP); the “Test compound signal” are wells containing test compound (inhibitor) at established concentrations).
IC50 was determined by fitting percent inhibition at each inhibitor concentration to the four-parameter nonlinear logistic equation using GraphPad Prism.

Chain of His-tagged Human KRAS^G12D (P01116-2 other isoform, or with tags, fused parts or gaps G12D): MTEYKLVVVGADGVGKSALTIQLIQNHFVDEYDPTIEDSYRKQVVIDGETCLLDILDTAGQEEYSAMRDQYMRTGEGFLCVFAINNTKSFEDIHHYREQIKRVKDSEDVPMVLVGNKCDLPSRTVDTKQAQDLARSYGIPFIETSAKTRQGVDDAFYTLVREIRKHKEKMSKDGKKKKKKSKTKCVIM

Row | SMILES | IC50 [nM]
1 | CCc1c(F)ccc2cc(O)cc(-c3ncc4c(N5CC(C)(O)C5)nc(OC[C@@]56CCCN5C[C@H](F)C6)nc4c3F)c12 [Compound 18] | > 10000
2 | CCc1c(F)ccc2cc(O)cc(-c3ncc4c(N5CCC[C@H]5CN5CCCC5)nc(OC[C@@]56CCCN5C[C@H](F)C6)nc4c3F)c12 [Compound 30] | > 10000
3 | CCc1c(F)ccc2cc(O)cc(-c3ncc4c(N5CC[C@@H](C(C)(C)O)C5)nc(OC[C@@]56CCCN5C[C@H](F)C6)nc4c3F)c12 [Compound 29] | > 10000
4 | CCc1c(F)ccc2cc(O)cc(-c3ncc4c(N5CCC[C@]6(CCO6)C5)nc(OCC5(CN(C)CC6COC6)CC5)nc4c3F)c12 [Compound 49a] | 4.05
5 | CCc1c(F)ccc2cc(O)cc(-c3ncc4c(OC[C@@]56CCCN5C[C@H](F)C6)nc(OC[C@@]56CCCN5C[C@H](F)C6)nc4c3F)c12 [Compound 47] | > 1000
6 | CCc1c(F)ccc2cc(O)cc(-c3ncc4c(N5CCC[C@]6(CCO6)C5)nc(OCC5(CN(C)CC6CCOC6)CC5)nc4c3F)c12 (stereo partly shown) [Compound 50a] | 6.76
7 | CCc1c(F)ccc2cc(O)cc(-c3ncc4c(N5CCCCCC5)nc(OCC5(CN(C)C)CC5)nc4c3F)c12 [Compound 43a] | 557
8 | CCc1c(F)ccc2cc(O)cc(-c3ncc4c(N5CCC6(CCO6)C5)nc(OC[C@@]56CCCN5C[C@H](F)C6)nc4c3F)c12 (stereo partly shown) [Compound 62] | > 1000
9 | CCc1c(F)ccc2cc(O)cc(-c3ncc4c(N5CCCC6(COC6)C5)nc(OC[C@@]56CCCN5C[C@H](F)C6)nc4c3F)c12 [Compound 50] | 71
10 | CCc1c(F)ccc2cc(O)cc(-c3ncc4c(N5CCC6(CC5)COC6)nc(OC[C@@]56CCCN5C[C@H](F)C6)nc4c3F)c12 [Compound 53] | > 1000
11 | CCc1c(F)ccc2cc(O)cc(-c3ncc4c(N5CCCC(O)CC5)nc(OCC5(CN(C)C)CC5)nc4c3F)c12 (stereo not shown) [Compound 44a] | 234
12 | CCc1c(F)ccc2cc(O)cc(-c3ncc4c(N5CCC(C)(O)C5)nc(OC[C@@]56CCCN5C[C@H](F)C6)nc4c3F)c12 (stereo partly shown) [Compound 16] | > 1000
13 | CCc1c(F)ccc2cc(O)cc(-c3ncc4c(N5CCCC6(CCO6)C5)nc(OC[C@@H]5C[C@@H](F)CN5C)nc4c3F)c12 (stereo partly shown) [Compound 3a] | 141
14 | CCc1c(F)ccc2cc(O)cc(-c3ncc4c(N5C6CCC5CC6)nc(OC[C@@]56CCCN5C[C@H](F)C6)nc4c3F)c12 [Compound 15] | > 1000
15 | CCc1c(F)ccc2cc(O)cc(-c3ncc4c(N5CCCC5c5ccccc5)nc(OC[C@@]56CCCN5C[C@H](F)C6)nc4c3F)c12 (stereo partly shown) [Compound 19] | > 10000
16 | CCc1c(F)ccc2cc(O)cc(-c3ncc4c(N5CC6CC(CO)(C6)C5)nc(OC[C@@]56CCCN5C[C@H](F)C6)nc4c3F)c12 [Compound 7a] | > 1000
17 | CCc1c(F)ccc2cc(O)cc(-c3ncc4c(N5CCCC[C@@H](N)C5)nc(OC[C@@]56CCCN5C[C@H](F)C6)nc4c3F)c12 [Compound 38] | 163
18 | CCc1c(F)ccc2cc(O)cc(-c3ncc4c(N5CCC[C@]6(CCO6)C5)nc(OCC5(CN6CC(F)(F)C6)CC5)nc4c3F)c12 [Compound 28a] | 159
19 | C#Cc1c(F)ccc2cc(O)cc(-c3ncc4c(N5CC=CCC5)nc(OCC5(CN(C)C)CC5)nc4c3F)c12 [Compound 36a] | > 1000
20 | CCc1c(F)ccc2cc(O)cc(-c3ncc4c(N5C[C@H]6C[C@@H]5[C@@H](O)C6)nc(OC[C@@]56CCCN5C[C@H](F)C6)nc4c3F)c12 [Compound 37] | > 1000
21 | CCc1c(F)ccc2cc(O)cc(-c3ncc4c(N5CC6(COC6)C5)nc(OC[C@@]56CCCN5C[C@H](F)C6)nc4c3F)c12 [Compound 54] | > 1000
22 | CCc1c(F)ccc2cc(O)cc(-c3ncc4c(NC5CC6(CCC6)C5)nc(OC[C@@]56CCCN5C[C@H](F)C6)nc4c3F)c12 [Compound 28] | > 10000

Row | SMILES | IC50 [nM]
23 | CCc1c(F)ccc2cc(O)cc(-c3ncc4c(N5CCCC6(CCOC6)C5)nc(OC[C@@]56CCCN5C[C@H](F)C6)nc4c3F)c12 (stereo partly shown) [Compound 64] | > 1000
24 | CCc1c(F)ccc2cc(O)cc(-c3ncc4c(N5CCCC(Cl)(CCO)C5)nc(OC[C@@]56CCCN5C[C@H](F)C6)nc4c3F)c12 (stereo partly shown) [Compound 26] | 1530
25 | CCc1c(F)ccc2cc(O)cc(-c3ncc4c(N5CC6(CCO6)C5)nc(OC[C@@]56CCCN5C[C@H](F)C6)nc4c3F)c12 [Compound 6a] | > 1000
26 | CCc1c(F)ccc2cc(O)cc(-c3ncc4c(N5CCC6CC6(O)C5)nc(OC[C@@]56CCCN5C[C@H](F)C6)nc4c3F)c12 (stereo partly shown) [Compound 52] | > 1000
27 | CN(C)CC1(COc2nc(N3CCC[C@]4(CCO4)C3)c3cnc(-c4cc(O)ccc4-c4cccs4)c(F)c3n2)CC1 [Compound 25a] | 639
28 | CCc1c(F)ccc2cc(O)cc(-c3ncc4c(N5CCCC6(CCN6)C5)nc(OC[C@@]56CCCN5C[C@H](F)C6)nc4c3F)c12 (stereo partly shown) [Compound 4a] | > 1000
29 | CCc1c(F)ccc2cc(O)cc(-c3ncc4c(N5CCC[C@]6(CCO6)C5)nc(OCC5(N(C)C)CC5)nc4c3F)c12 [Compound 37a] | 121
30 | CCc1c(F)ccc2cc(O)cc(-c3ncc4c(N5CCC[C@]6(CCO6)C5)nc(OCC5(CN6CCC6)CC5)nc4c3F)c12 [Compound 13a] | 13.2
31 | CCc1c(F)ccc2cc(O)cc(-c3ncc4c(N5CCC6(CCC6=O)CC5)nc(OC[C@@]56CCCN5C[C@H](F)C6)nc4c3F)c12 [Compound 59] | > 1000
32 | CCc1c(F)ccc2cc(O)cc(-c3ncc4c(N5CCC[C@]6(CCO6)C5)nc(OCC5(CN6CCN(C)CC6)CC5)nc4c3F)c12 [Compound 12a] | 12.1
33 | CCc1c(F)ccc2cc(O)cc(-c3ncc4c(N5CCCC5c5cccnc5)nc(OC[C@@]56CCCN5C[C@H](F)C6)nc4c3F)c12 (stereo partly shown) [Compound 24] | > 10000
34 | CCc1c(F)ccc2cc(O)cc(-c3ncc4c(N5CCCCC(OC)C5)nc(OCC5(CN(C)C)CC5)nc4c3F)c12 (stereo not shown) [Compound 45a] | > 1000
35 | CCc1c(F)ccc2cc(O)cc(-c3ccc4c(N5CCCC6(CCO6)C5)nc(OC[C@@]56CCCN5C[C@H](F)C6)nc4c3F)c12 (stereo partly shown) [Compound 70] | 67.4
36 | CCc1c(F)ccc2cc(O)cc(-c3c(F)cc4c(N5CCCC6(CCO6)C5)nc(OC[C@@]56CCCN5C[C@H](F)C6)nc4c3F)c12 (stereo partly shown) [Compound 96] | 128
37 | CCc1c(F)ccc2cc(O)cc(-c3ncc4c(N5CCN(C(C)=O)[C@H](C)C5)nc(OC[C@@]56CCCN5C[C@H](F)C6)nc4c3F)c12 [Compound 31] | > 10000
38 | CCc1c(F)ccc2cc(O)cc(-c3ncc4c(N5CC6(CCC6=O)C5)nc(OC[C@@]56CCCN5C[C@H](F)C6)nc4c3F)c12 [Compound 112] | > 1000
39 | CCc1c(F)ccc2cc(O)cc(-c3ncc4c(N5C[C@@H]6C[C@@H](O)[C@H]5C6)nc(OC[C@@]56CCCN5C[C@H](F)C6)nc4c3F)c12 [Compound 27] | > 10000
40 | CCc1c(F)ccc2cc(O)cc(-c3ncc4c(N5C[C@@H]6C[C@H]5CO6)nc(OC[C@@]56CCCN5C[C@H](F)C6)nc4c3F)c12 [Compound 35] | > 1000
41 | CCc1c(F)ccc2cc(O)cc(-c3ncc4c(N5CCC[C@H]5CN)nc(OC[C@@]56CCCN5C[C@H](F)C6)nc4c3F)c12 [Compound 23] | 1350
42 | Nc1cc(Cl)c(C(F)(F)F)c(-c2ncc3c(N4CCCC5(COC5)C4)nc(OC[C@@]45CCCN4C[C@H](F)C5)nc3c2F)c1 [Compound 63] | > 1000
43 | CCc1c(F)ccc2cc(O)cc(-c3ncc4c(N5CCCC56COC6)nc(OC[C@@]56CCCN5C[C@H](F)C6)nc4c3F)c12 [Compound 14] | > 1000
